Measurements taken from PubChem BioAssay (NCI).
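Assay format: 96-well plates, 48-hour exposure. GI50 = concentration required for 50% inhibition of growth. Definition used: TGI = concentration required for complete inhibition of growth.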

Key:
Test in all cases: inhibition of tumour cell growth, NCI panel, 48 h
SN12C renal = system: SN12C renal
SK-MEL-28 melanoma = system: SK-MEL-28 melanoma
SW-620 colon = system: SW-620 colon
MDA-MB-231 breast = system: MDA-MB-231 breast
SK-MEL-2 melanoma = system: SK-MEL-2 melanoma
NCI/ADR-RES ovarian = system: NCI/ADR-RES ovarian
SNB-19 CNS = system: SNB-19 CNS
TK-10 renal = system: TK-10 renal
MDA-MB-435 = system: MDA-MB-435
786-0 renal = system: 786-0 renal
K-562 leukemia = system: K-562 leukemia
NCI-H460 lung = system: NCI-H460 lung
BT-549 breast = system: BT-549 breast
NCI-H522 lung = system: NCI-H522 lung
CAKI-1 renal = system: CAKI-1 renal
A498 renal = system: A498 renal
KM12 colon = system: KM12 colon
SF-268 CNS = system: SF-268 CNS
OVCAR-4 ovarian = system: OVCAR-4 ovarian
CCRF-CEM leukemia = system: CCRF-CEM leukemia
MALME-3M melanoma = system: MALME-3M melanoma
NCI-H23 lung = system: NCI-H23 lung
HCC-2998 colon = system: HCC-2998 colon
IGROV1 ovarian = system: IGROV1 ovarian
T-47D breast = system: T-47D breast
MCF7 breast = system: MCF7 breast
SNB-75 CNS = system: SNB-75 CNS
UACC-257 melanoma = system: UACC-257 melanoma
LOX IMVI melanoma = system: LOX IMVI melanoma
HOP-62 NSCLC = system: HOP-62 NSCLC
HCT-15 colon = system: HCT-15 colon
SF-539 CNS = system: SF-539 CNS
UACC-62 melanoma = system: UACC-62 melanoma
HL-60(TB) leukemia = system: HL-60(TB) leukemia
SF-295 CNS = system: SF-295 CNS
OVCAR-5 ovarian = system: OVCAR-5 ovarian
SR leukemia = system: SR leukemia
ACHN renal = system: ACHN renal
SK-OV-3 ovarian = system: SK-OV-3 ovarian
NCI-H226 lung = system: NCI-H226 lung
UO-31 renal = system: UO-31 renal
EKVX NSCLC = system: EKVX NSCLC
U251 CNS = system: U251 CNS
HS 578T breast = system: HS 578T breast
HOP-92 NSCLC = system: HOP-92 NSCLC
PC-3 prostate = system: PC-3 prostate
A549 NSCLC = system: A549 NSCLC
M14 melanoma = system: M14 melanoma
RPMI-8226 leukemia = system: RPMI-8226 leukemia
OVCAR-8 ovarian = system: OVCAR-8 ovarian
MOLT-4 leukemia = system: MOLT-4 leukemia
COLO 205 colon = system: COLO 205 colon
DU-145 prostate = system: DU-145 prostate
HCT-116 colon = system: HCT-116 colon
OVCAR-3 ovarian = system: OVCAR-3 ovarian

O=C1c2ccccc2-c2c1c1ccc([N+](=O)[O-])cc1c(=O)n2CCCN1CCOCC1
GI50 (SN12C renal): 333 nM | TGI (SN12C renal): > 100000 nM | GI50 (SK-MEL-28 melanoma): > 100000 nM | TGI (SK-MEL-28 melanoma): > 100000 nM | GI50 (SW-620 colon): 160 nM | TGI (SW-620 colon): > 100000 nM | GI50 (MDA-MB-231 breast): 24800 nM | TGI (MDA-MB-231 breast): > 87400 nM | GI50 (SK-MEL-2 melanoma): > 61200 nM | TGI (SK-MEL-2 melanoma): > 100000 nM | GI50 (NCI/ADR-RES ovarian): 293 nM | TGI (NCI/ADR-RES ovarian): 24800 nM | GI50 (SNB-19 CNS): 378 nM | TGI (SNB-19 CNS): > 52600 nM | GI50 (TK-10 renal): 25200 nM | TGI (TK-10 renal): > 100000 nM | GI50 (MDA-MB-435): 867 nM | TGI (MDA-MB-435): > 100000 nM | GI50 (786-0 renal): 135 nM | TGI (786-0 renal): 2320 nM | GI50 (K-562 leukemia): 324 nM | TGI (K-562 leukemia): > 100000 nM | GI50 (NCI-H460 lung): 193 nM | TGI (NCI-H460 lung): > 100000 nM | GI50 (BT-549 breast): 311 nM | TGI (BT-549 breast): 16700 nM | GI50 (NCI-H522 lung): 424 nM | TGI (NCI-H522 lung): > 100000 nM | GI50 (CAKI-1 renal): 232 nM | TGI (CAKI-1 renal): > 100000 nM | GI50 (A498 renal): > 38800 nM | TGI (A498 renal): > 92400 nM | GI50 (KM12 colon): 258 nM | TGI (KM12 colon): > 100000 nM | GI50 (SF-268 CNS): 114 nM | TGI (SF-268 CNS): > 100000 nM | GI50 (OVCAR-4 ovarian): 776 nM | TGI (OVCAR-4 ovarian): > 48300 nM | GI50 (CCRF-CEM leukemia): 22.4 nM | TGI (CCRF-CEM leukemia): 121 nM | GI50 (MALME-3M melanoma): 268 nM | TGI (MALME-3M melanoma): 24700 nM | GI50 (NCI-H23 lung): 160 nM | GI50 (HCC-2998 colon): > 41000 nM | TGI (HCC-2998 colon): > 100000 nM | GI50 (IGROV1 ovarian): 238 nM | TGI (IGROV1 ovarian): > 100000 nM | GI50 (T-47D breast): 97.1 nM | TGI (T-47D breast): > 100000 nM | GI50 (MCF7 breast): < 16.6 nM | TGI (MCF7 breast): > 100000 nM | GI50 (SNB-75 CNS): 1010 nM | TGI (SNB-75 CNS): > 100000 nM | GI50 (UACC-257 melanoma): 19600 nM | TGI (UACC-257 melanoma): > 100000 nM | GI50 (LOX IMVI melanoma): 81.3 nM | TGI (LOX IMVI melanoma): 338 nM | GI50 (HOP-62 NSCLC): 48.6 nM | TGI (HOP-62 NSCLC): 346 nM | GI50 (HCT-15 colon): 396 nM | TGI (HCT-15 colon): > 100000 nM | GI50 (SF-539 CNS): 119 nM | TGI (SF-539 CNS): 415 nM | GI50 (UACC-62 melanoma): 403 nM | TGI (UACC-62 melanoma): > 100000 nM | GI50 (HL-60(TB) leukemia): 147 nM | TGI (HL-60(TB) leukemia): > 100000 nM | GI50 (SF-295 CNS): 182 nM | TGI (SF-295 CNS): 31800 nM | GI50 (OVCAR-5 ovarian): 13000 nM | TGI (OVCAR-5 ovarian): > 100000 nM | GI50 (SR leukemia): 13.9 nM | TGI (SR leukemia): > 100000 nM | GI50 (ACHN renal): 128 nM | GI50 (SK-OV-3 ovarian): 6570 nM | TGI (SK-OV-3 ovarian): > 100000 nM | GI50 (NCI-H226 lung): > 34300 nM | TGI (NCI-H226 lung): > 64800 nM | GI50 (UO-31 renal): 195 nM | TGI (UO-31 renal): > 100000 nM | GI50 (EKVX NSCLC): 20900 nM | TGI (EKVX NSCLC): > 92700 nM | GI50 (U251 CNS): 92.3 nM | TGI (U251 CNS): 15800 nM | GI50 (HS 578T breast): 5970 nM | TGI (HS 578T breast): > 56700 nM | TGI (HOP-92 NSCLC): > 41100 nM | GI50 (PC-3 prostate): 291 nM | TGI (PC-3 prostate): > 100000 nM | GI50 (A549 NSCLC): 9370 nM | TGI (A549 NSCLC): > 100000 nM | GI50 (M14 melanoma): 122 nM | TGI (M14 melanoma): 495 nM | GI50 (RPMI-8226 leukemia): 138 nM | TGI (RPMI-8226 leukemia): 521 nM | GI50 (OVCAR-8 ovarian): 320 nM | TGI (OVCAR-8 ovarian): > 100000 nM | GI50 (MOLT-4 leukemia): 62.5 nM | TGI (MOLT-4 leukemia): > 100000 nM | GI50 (COLO 205 colon): 7920 nM | TGI (COLO 205 colon): > 100000 nM | GI50 (DU-145 prostate): 84 nM | TGI (DU-145 prostate): 3090 nM | GI50 (HCT-116 colon): 85.1 nM | TGI (HCT-116 colon): 1810 nM | GI50 (OVCAR-3 ovarian): 12400 nM | TGI (OVCAR-3 ovarian): 29900 nM
